Measurements: ChEMBL document CHEMBL2203037, “Synthesis and Anti-influenza A Virus Activity of 2,2-Dialkylamantadines and Related Compounds” (ACS Med Chem Lett, 2012)
Activity calls are given as the source filed them. The rule behind the calls is not given here.

What was measured:
Influenza A virus [1] = assay: Antiviral activity against Influenza A virus (A/X-31(H3N2)) infected in MDCK cells assessed as virus-induced cytopathic effect measured 3 days post infection by microscopic analysis; assay type: functional, organism-based
Influenza A virus [2] = assay: Antiviral activity against amantadine-sensitive Influenza A virus (A/FM/1/47 (H1N1)) infected in MDCK cells assessed as virus-induced cytopathic effect measured 3 days post infection by microscopic analysis; assay type: functional, organism-based; details: A/Fort Monmouth/1/1947(H1N1), 72 h
Influenza A virus [3] = assay: Antiviral activity against amantadine-sensitive Influenza A virus (A/Ned/378/05 (H1N1)) infected in MDCK cells assessed as virus-induced cytopathic effect measured 3 days post infection by microscopic analysis; assay type: functional, organism-based; details: 72 h
[4] = Cytotoxicity against dog MDCK cells assessed as cell morphology alterations; assay type: cell-based, Canis lupus familiaris
H3N2 subtype [5] = assay: Antiviral activity against Influenza A virus (A/HK/7/87 (H3N2)) infected in MDCK cells assessed as virus-induced cytopathic effect measured 3 days post infection by microscopic analysis; assay type: functional, organism-based; details: A/Hong Kong/7/1987(H3N2), 72 h
Influenza A virus [6] = assay: Antiviral activity against Influenza A virus (A/Ishikawa/7/82 (H3N2)) infected in MDCK cells assessed as virus-induced cytopathic effect measured 3 days post infection by microscopic analysis; assay type: functional, organism-based
[7] = Cytotoxicity against dog MDCK cells assessed as cell viability after 72 hrs by MTS assay; assay type: cell-based, Canis lupus familiaris
Feline coronavirus = assay: Antiviral activity against Feline coronavirus by cell based assay; assay type: functional, organism-based
[8] = tested on: Respiratory syncytial virus; assay: Antiviral activity against Respiratory syncytial virus by cell based assay; assay type: functional, organism-based
Vaccinia virus = assay: Antiviral activity against Vaccinia virus by cell based assay; assay type: functional, organism-based; details: Orthopoxvirus vaccinia
[9] = tested on: Vesicular stomatitis virus; assay: Antiviral activity against Vesicular stomatitis virus by cell based assay; assay type: functional, organism-based
Coxsackievirus B4 = assay: Antiviral activity against Coxsackievirus B4 by cell based assay; assay type: functional, organism-based
Sindbis virus = assay: Antiviral activity against Sindbis virus by cell based assay; assay type: functional, organism-based
Punta Toro virus = assay: Antiviral activity against Punta Toro virus by cell based assay; assay type: functional, organism-based
H3N2 subtype [10] = assay: Antiviral activity against Influenza A virus (A/HK/7/87 (H3N2)) infected in MDCK cells assessed as virus-induced cytopathic effect by MTS assay; assay type: functional, organism-based, A/Hong Kong/7/1987(H3N2)
Human respirovirus 3 = assay: Antiviral activity against Parainfluenza-3 virus by cell based assay; assay type: functional, organism-based
[11] = tested on: Mammalian orthoreovirus 1; assay: Antiviral activity against Reovirus-1 by cell based assay; assay type: functional, organism-based
Simplexvirus = assay: Antiviral activity against Herpes simplex virus by cell based assay; assay type: functional, organism-based
[12] = Influenza A virus, A/Ishikawa/7/82 (H3N2), MDCK, 72 h
[13] = Influenza A virus, A/Hong Kong/7/1987(H3N2), MDCK

Compound | EC50 (Influenza A virus [2]) [µM] | EC50 (Influenza A virus [3]) [µM] | MCC [4] [µM] | EC50 (H3N2 subtype [5]) [µM] | EC50 (Influenza A virus [6]; [12]) [µM] | CC50 at 72 h [7] [µM] | Activity (Feline coronavirus) | Activity [8] | Activity (Vaccinia virus) | Activity [9] | Activity (Coxsackievirus B4) | Activity (Sindbis virus) | Activity (Punta Toro virus) | Activity (Human respirovirus 3) | Activity [11] | Activity (Simplexvirus) | EC50 (H3N2 subtype [10]; [13]) [µM] | also measured
CCOC(=O)C1=C[C@@H](OC(CC)CC)[C@H](NC(C)=O)[C@@H](N)C1 [OSELTAMIVIR] | 16 | 1.5 | > 100 | 29 | 3 |  |  |  |  |  |  |  |  |  |  |  |  | EC50 (Influenza A virus [1]; Influenza A virus, MDCK, 72 h): 0.11 µM
CC(N)C12CC3CC(CC(C3)C1)C2 (stereo unspecified) [RIMANTADINE] | 1.9 | 0.5 | ≥ 100 | 0.17 | 0.45 | > 100 |  |  |  |  |  |  |  |  |  |  |  | EC50 (Influenza A virus [1]; mdck): 7 µM
CCC1(CC)C2CC3CC(C2)CC1(NC)C3 | 9.3 | 8.7 | ≥ 100 | > 100 | > 100 | > 100 | inactive | inactive | inactive | inactive | inactive | inactive | inactive | inactive | inactive | inactive |  | EC50 (Influenza A virus [1]; Influenza A virus, MDCK, 72 h): > 100 µM; EC50 (H3N2 subtype [10]; mdck): > 100 µM
CCC1(CC)C2CC3CC(C2)CC1(N)C3 | 7 | 4.7 | ≥ 100 | > 100 | > 100 | > 100 | inactive | inactive | inactive | inactive | inactive | inactive | inactive | inactive | inactive | inactive |  | EC50 (Influenza A virus [1]; Influenza A virus, MDCK, 72 h): > 100 µM; EC50 (H3N2 subtype [10]; mdck): > 100 µM
NC12CC3CC(CC(C3)C1)C2 [AMANTADINE] | 5.1 |  | 500 | 3.4 | 11 | > 100 |  |  |  |  |  |  |  |  |  |  |  | EC50 (Influenza A virus [1]; mdck): 61 µM
NC(=O)c1ncn([C@@H]2O[C@H](CO)[C@@H](O)[C@H]2O)n1 [RIBAVIRIN] | 10 | 7.6 | ≥ 100 | 7.7 |  | ≥ 20 |  |  |  |  |  |  |  |  |  |  | 7 | EC50 (Influenza A virus [1]; mdck): 8.8 µM; EC50 (Influenza A virus [6]; mdck): 8.8 µM
CC1(C)C2CC3CC(C2)CC1(N1CCCCC1)C3 |  |  | 4 | > 100 |  | 0.8 | inactive | inactive | inactive | inactive | inactive | inactive | inactive | inactive | inactive | inactive | > 100 | 
CCC1(CC)C2CC3CC(C2)CC1(N(C)C)C3 | 43 | 23 | ≥ 100 | > 100 | > 100 | > 100 | inactive | inactive | inactive | inactive | inactive | inactive | inactive | inactive | inactive | inactive |  | EC50 (Influenza A virus [1]; Influenza A virus, MDCK, 72 h): > 100 µM; EC50 (H3N2 subtype [10]; mdck): > 100 µM
CC(C)C1C2CC3CC(C2)CC1(N(C)C)C3 (stereo unspecified) |  |  | > 100 | > 100 |  | ≥ 100 | inactive | inactive | inactive | inactive | inactive | inactive | inactive | inactive | inactive | inactive | > 100 | 
CNC12CC3CC(CC(C3)C1(C)C)C2 |  |  | 110 | > 100 |  | 70 | inactive | inactive | inactive | inactive | inactive | inactive | inactive | inactive | inactive | inactive | > 100 | 
CN(C)C12CC3CC(CC(C3)C1(C)C)C2 |  |  | 110 | > 100 |  | 68 | inactive | inactive | inactive | inactive | inactive | inactive | inactive | inactive | inactive | inactive | > 100 | 
CC(=O)N[C@H]1[C@H]([C@H](O)[C@H](O)CO)OC(C(=O)O)=C[C@@H]1NC(=N)N [ZANAMIVIR] | 5 | 1.7 | > 200 | 1.2 | 8.7 |  |  |  |  |  |  |  |  |  |  |  |  | EC50 (Influenza A virus [1]; mdck): 0.16 µM
CC12CC3CC1(C)CC(N)(C2)C3(C)C |  |  | ≥ 100 | > 100 |  | > 100 | inactive | inactive | inactive | inactive | inactive | inactive | inactive | inactive | inactive | inactive | > 100 | 
CC(C)C1C2CC3CC(C2)CC1(N)C3 (stereo unspecified) |  |  | 5.3 | > 100 |  | 8.6 | inactive | inactive | inactive | inactive | inactive | inactive | inactive | inactive | inactive | inactive | > 100 | 
